SMILES strings stand for the structures.

This assay can be described thus: Antagonist activity at human CCR3 receptor assessed as inhibition of chemotaxis in eosinophil.
For `CCc1cc(NC(=O)N[C@H](C)[C@@H](O)CN(CC)CCCc2ccc(F)cc2)cc(-c2nnnn2C)c1` [1-((2R,3S)-4-(ethyl(3-(4-fluorophenyl)propyl)amino)-3-hydroxybutan-2-yl)-3-(3-ethyl-5-(1-methyl-1H-tetrazol-5-yl)phenyl)urea], the IC50 (as a rule, the concentration that gives 50% inhibition) came out at 0.004 nM.

As for `CCc1cc(NC(=O)N[C@H](C)[C@@H](O)CN(C)CCCc2ccc(F)cc2)cc(-c2nnnn2C)c1` [1-(3-ethyl-5-(1-methyl-1H-tetrazol-5-yl)phenyl)-3-((2R,3S)-4-((3-(4-fluorophenyl)propyl)(methyl)amino)-3-hydroxybutan-2-yl)urea], the concentration for half-maximal inhibition (IC50) was found to be 2.6 nM.

For the molecule `CCc1cc(NC(=O)N[C@H](C)[C@@H](O)CN(CCCc2ccc(F)cc2)CC2CC2)cc(-c2nnnn2C)c1` [1-((2R,3S)-4-((cyclopropylmethyl)(3-(4-fluorophenyl)propyl)amino)-3-hydroxybutan-2-yl)-3-(3-ethyl-5-(1-methyl-1H-tetrazol-5-yl)phenyl)urea], the IC50 worked out at 0.005 nM.

In the case of `C[C@@H](NC(=O)Nc1cccc(-c2nnnn2C)c1)[C@@H](O)CN1CCC[C@@H](Cc2ccc(F)cc2)C1` [1-{(1R,2S)-3-[(S)-3-(4-Fluoro-benzyl)-piperidin-1-yl]-2-hydroxy-1-methyl-propyl}-3-[3-(1-methyl-1H-tetrazol-5-yl)-phenyl]-urea], the IC50 came out at 0.038 nM.

Consider `C[C@@H](NC(=O)Nc1cccc(-c2nnnn2C)c1)[C@@H](O)CN(C)[C@@H](C)[C@@H](O)c1ccccc1` [1-((2R,3S)-3-hydroxy-4-(((1S,2S)-1-hydroxy-1-phenylpropan-2-yl)(methyl)amino)butan-2-yl)-3-(3-(1-methyl-1H-tetrazol-5-yl)phenyl)urea], for which the IC50 is 22 nM.

These data come from BindingDB's records for doi:10.1016/j.bmcl.2007.11.087 (Bristol-Myers Squibb, 2008).
